Laboratory results published in US6623741B1, “Methods and compositions for inhibition of membrane fusion-associated events including RSV transmission” (Trimeris, Inc., priority 2000, dated 2003).
pKd: −log10 of the molar value. Values joined by “and” are separate entries in the source; they are usually repeats but may differ in a detail not shown here. Equal values may be shown once.

How the values were obtained:
HR1 domain of RSV-F1 [1] = format: binding, respiratory syncytial virus; details: 5 μg/ml proteinase-K, one hour at 37° C.
Protocol: Proteinase-K Protection Experiments:
(§1) Mixtures were treated with 5 μg/ml proteinase-K (Sigma, St. Louis, Mo.) or an equivalent volume of buffer, vortexed and then incubated for one hour at 37° C. Phenyl methyl sulfonyl fluoride (PMSF, Boehringer Mannheim, Indianapolis, Ind.) was added to achieve a 2 mM final concentration to stop proteolytic digestion. 20 μl of each sample was removed and added to 10 μl of a sample buffer (New England Biolabs, Boston, Mass.) containing 6 w/v% Sodium Dodecyl Sulfate (DDS), DTT, 187.5 mM TRIS, 30% glycerol and bromophenol blue. The mixtures were heated for five minutes at 90° C. 15 μl of the samples were run on a 10-20% Tricine polyacrylamide gel (Novex, San Diego, Calif.), stained with Coomassie brilliant blue and destained with a 10% methanol-10% acetic acid mixture (Fisher, Norcross, Ga.).

HR1 domain of RSV-F1 [2] = molecular target: T1, HR1 domain of RSV-F1 (Human respiratory syncytial virus A, UniProt P03420); format: binding
T1 construct: made in house
T1 sequence (P03420 142-302): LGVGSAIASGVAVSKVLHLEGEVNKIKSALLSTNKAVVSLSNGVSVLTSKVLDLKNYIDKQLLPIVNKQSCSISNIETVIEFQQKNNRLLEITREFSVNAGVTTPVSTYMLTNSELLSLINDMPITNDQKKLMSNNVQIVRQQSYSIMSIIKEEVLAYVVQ
Protocol: Proteinase-K Protection Experiments:
as §1

[3] = molecular target: T2, DP107-like domain of the RSV F1-protein (MF5.1 fusion protein) (Human respiratory syncytial virus A, UniProt P03420); assay: biochemical; format: binding; details: binding affinity for the DP107-like domain of RSV F1 protein
T2 construct: made in house
T2 sequence (P03420 142-302): as above
Protocol: After incubation and washing, unbound Fab-d is removed from the plates and bound Fab-d is quantitated. A no-inhibitor control should also be conducted.
Such an assay takes advantage of accepted radioligand and receptor binding principles. (See, for example, Yamamura, H. I. et al., 1985, “Neurotransmitter Receptor Binding”, 2nd ed., Raven Press, NY.) As above, M41Δ78 is immobilized onto a solid support such as a microtiter well. […] Specific binding to M41Δ78 is defined as the difference of the binding of the labeled DP178 preparation in the microtiter wells (totals) and the binding in identical wells containing, in addition, excess unlabeled DP178 (nonspecifics).
Specifically, the DNA sequence corresponding amino acid residues 142-302 of the RSV F1 protein was amplified by PCR and cloned into the Xmn I site of the expression vector pMal-p2 (New England Biolab) to give MF5.1. These amino acid residues correspond to the extracellular domain of the RSV F1 protein including its DP107 region but excluding the DP178 region.
Cell fusion assays were performed with each of the peptides as described in Section 17 above.

[4] = molecular target: T3, MBP fusion protein containing the ectodomain of the HIV-1 fusion protein gp41 (M41Δ178) (Human immunodeficiency virus type 1 group M subtype B, UniProt P03377); details: control for non-specific binding
T3 construct: made by cloning the DNA fragment corresponding to gp41 amino acids 540-642 into the Xmn I site of pMal-p2; made in house
T3 sequence (P03377 540-642, stated change not applied): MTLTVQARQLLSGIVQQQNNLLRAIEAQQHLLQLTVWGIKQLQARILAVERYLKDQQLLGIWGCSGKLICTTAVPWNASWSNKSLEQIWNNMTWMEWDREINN
Protocol: as §1

RSV = assay: Anti-RSV antiviral activity assay (syncytial formation, HEp2 cells); format: cell-based, respiratory syncytial virus; details: purified peptides
Protocol: Anti-RSV Antiviral Activity Assays:
The assay utilized herein tested the ability of the peptides to disrupt the ability of HEp2 cells acutely infected with RSV (i.e., cells which are infected with a multiplicity of infection of greater than 2) to fuse and cause syncytial formation on a monolayer of uninfected an uninfected line of Hep-2 cells. The lower the observed level of fusion, the greater the antiviral activity of the peptide was determined to be. […]
After incubation, cells in control wells were checked for fusion centers, media was removed from the wells, followed by addition, to each well, of either Crystal Violet stain or XTT. […] The number of syncytia per well were then counted, using a dissecting microscope.
With respect to XTT (2,3-bis[2-Methoxy-4-nitro-5-sulfophenyl]-2H-tetrazolium-5-carboxyanilide inner salt), 50 μl XTT (1 mg/ml in RPMI buffered with 100 mM HEPES, pH 7.2-7.4, plus 5% DMSO) were added to each well. The OD450/690 was measured (after blanking against growth medium without cells or reagents, and against reagents) according to standard procedures. […]

[5] = Circular dichroism spectroscopy (helicity, thermal stability); format: physicochemical; details: 10 and 50 μM
Protocol: Circular Dichroism Spectroscopy:
Circular Dichroism (CD) spectra were obtained using an AVIV Associates 62DS spectrometer equipped with a thermoelectric temperature controller. Spectra were obtained in 0.1, 0.5 and 1.0 cm quartz cells at 1° C. with 0.5 nm steps from 200 to 260 nm, 1.5 nm bandwidth and an averaging time of 4 sec/step. After the cell/buffer blank was subtracted, spectra were smoothed using a third-order least-squares polynomial fit with a conservative (5-10 point) window size to give random residuals. Mixing experiments were performed by comparing the spectrum of the two peptides mixed together in a 0.1 cm path length cell at the desired concentrations (referred to herein as the “experimental” spectrum) to the sum of the individual spectra of the peptides, each solution in a 0.1 cm path length cell (referred to herein as the “model spectrum” for no peptide interaction or “model for no interaction”).
Raw ellipticity values were converted to mean residue ellipticity using standard methods (Cantor & Schimmel, 1980, Biophysical Chemistry Part II: Techniques for the Study of Biological Structure and Function, W.H. Freeman and Co., New York). Conversions for the mixing experiment spectra were performed using a peptide length corresponding to the average of the two peptides. Thermal stability measurements were performed in 2° C. steps, with 1 minute equilibration times. Spectra were smoothed, converted to mean residue ellipticity, and the corresponding value at 222 nm noted from each spectrum. Percent helicity values were calculated using single value decomposition with a basis set of 33 protein spectra (Johnson & Curtis, 1990, Proteins: Structure, Function and Genetics 7:205-214).

CC[C@H](C)[C@H](NC(=O)[C@H](Cc1ccccc1)NC(=O)[C@H](C)NC(=O)[C@H](CC(C)C)NC(=O)[C@H](CO)NC(=O)[C@H](CCC(N)=O)NC(=O)[C@H](CC(N)=O)NC(=O)[C@@H](NC(=O)[C@H](CCCCN)NC(=O)[C@H](CCC(=O)O)NC(=O)[C@H](CC(N)=O)NC(=O)[C@@H](NC(=O)[C@H](CCC(N)=O)NC(=O)[C@H](CO)NC(=O)[C@@H](NC(=O)[C@H](CO)NC(=O)[C@H](C)NC(=O)[C@H](CC(=O)O)NC(=O)[C@H](Cc1ccccc1)NC(=O)[C@H](CCC(=O)O)NC(=O)[C@H](CC(=O)O)NC(=O)[C@H](CO)NC(=O)[C@@H]1CCCN1C(=O)[C@H](Cc1ccccc1)NC(=O)[C@@H](NC(C)=O)C(C)C)[C@@H](C)CC)C(C)C)[C@@H](C)CC)C(=O)N[C@@H](CCCNC(=N)N)C(=O)N[C@@H](CCCCN)C(=O)N[C@@H](CO)C(=O)N[C@@H](CC(=O)O)C(=O)N[C@@H](CCC(=O)O)C(=O)N[C@@H](CC(C)C)C(=O)N[C@@H](CC(C)C)C(=O)N[C@@H](Cc1c[nH]cn1)C(=O)N[C@@H](CC(N)=O)C(=O)N[C@H](C(N)=O)C(C)C [Peptide T112]
proteinase-K digestion of the peptide alone (HR1 domain of RSV-F1 [1]): digest the peptide entiretly
binding to the HR1 domain of RSV-F1 and protection from proteolytic digestion (HR1 domain of RSV-F1 [2]): binds to the HR1 domain of RSV-F1 and thereby protects the domain from proteolytic digestion
pKd [3]: 8.70 and 9.00
binding to MBP fusion protein containing the HIV-1 gp41 ectodomain [4]: does not bind
anti-RSV antiviral activity (in words) (RSV): substantial antiviral activity
thermal stability (CD melting curves, in words) [5]: little thermal stability
helicity ([5]; PBS solution): less than 10%
